Data as given in patent US11543404B2, “Nerve cell device and method for evaluating neural activity” (Stem Cell & Device Laboratory, Inc., priority 2017, dated 2023).

Assays:
[1] = system: iPS cell-derived neurons XCL-1 NEURONS; assay: MEA measurement of drug response (spikes, bursts, synchronous bursts) of XCL-1 NEURONS on oriented PLGA fiber sheet; assay type: cell-based, human; conditions: 4-AP final concentration 100 μM
Method: iPS cell-derived neurons (253G1 hiPS cell-derived neuron or XCL-1 NEURONS (XCell Science, catalog number XN-001-1V)) were seeded on the oriented PLGA fiber sheet as a cell scaffold at 13×10^5 cells/cm^2. 253G1 hiPS cell-derived neurons were cultured in N2B27 medium with or without 20% ACM, and the XCL-1 NEURONS are cultured in BrainPhys (registered trademark) Neuronal Medium (05792, STEMCELL TECHNOLOGIES) with or without 20% ACM in an incubator at 5% CO2 and 37° C. for 4 or 6 weeks. The fiber sheet was placed on an MEA probe (MED64 system, Alpha MED Scientific Inc.), and made the cells contact with the electrodes of MEA probe to measure neural activity (spikes). As a control, neurons were similarly seeded directly on a probe (electrodes) based on a conventional method, and cultured in an incubator at 5% CO2 and 37° C. for 4 or 6 weeks. The obtained results were compared with those given by a conventional method (direct seeding to a probe). A larger number of spikes were detected in 253G1 hiPS cell-derived neurons on the fiber sheet at 4-week culture (FIG. 7a). […] In the measurement system, 4-aminopyridine (4-AP), known to have a function of inhibiting various potassium channels in neurons and maintaining neuronal action potential, was added to the neurons cultured for 4 weeks at a final concentration of 100 μM, and then the spikes were measured. As a result, the number of spikes was increased both in the control group and in the fiber sheet group by the addition of 4-aminopyridine, and appropriate drug response was also confirmed (FIG. 7a). […] The cells were cultured in BrainPhys (registered trademark) Neuronal Medium (05792, STEMCELL TECHNOLOGIES) containing 20% ACM in an incubator at 5% CO2 and 37° C. for 2, 4, and 6 weeks. The obtained cell sheet (nerve cell device) was placed on an MEA probe (MED64 system, Alpha MED Scientific Inc.) and made the cells contact with the electrodes of MEA probe to measure neural activity (spikes and bursts). In the measurement system, 4-aminopyridine (4-AP), known to maintain a neural action potential was added at a final concentration of 100 μM to examine the drug response of neurons. MED 64 Burstscope (Alpha MED Scientific Inc.) was used for analyzing neural activity. About the cell sheet obtained by culturing for 4 weeks, the result of analyzing the number of spikes is shown in FIG. 8a, and the result of analyzing the number of synchronous bursts is shown in FIG. 8b. […] Furthermore, the result of analyzing neural activity by raster plots for a cell sheet obtained by culturing for 6 weeks is shown in FIG. 8c.

[2] = system: 253G1 hiPS cell-derived neurons; assay: MEA measurement of drug response (number of spikes) of 253G1 hiPS cell-derived neurons; assay type: cell-based, human; conditions: 4-AP final concentration 100 μM
Method: iPS cell-derived neurons (253G1 hiPS cell-derived neuron or XCL-1 NEURONS (XCell Science, catalog number XN-001-1V)) were seeded on the oriented PLGA fiber sheet as a cell scaffold at 13×10^5 cells/cm^2. 253G1 hiPS cell-derived neurons were cultured in N2B27 medium with or without 20% ACM, and the XCL-1 NEURONS are cultured in BrainPhys (registered trademark) Neuronal Medium (05792, STEMCELL TECHNOLOGIES) with or without 20% ACM in an incubator at 5% CO2 and 37° C. for 4 or 6 weeks. The fiber sheet was placed on an MEA probe (MED64 system, Alpha MED Scientific Inc.), and made the cells contact with the electrodes of MEA probe to measure neural activity (spikes). As a control, neurons were similarly seeded directly on a probe (electrodes) based on a conventional method, and cultured in an incubator at 5% CO2 and 37° C. for 4 or 6 weeks. The obtained results were compared with those given by a conventional method (direct seeding to a probe). A larger number of spikes were detected in 253G1 hiPS cell-derived neurons on the fiber sheet at 4-week culture (FIG. 7a). […] In the measurement system, 4-aminopyridine (4-AP), known to have a function of inhibiting various potassium channels in neurons and maintaining neuronal action potential, was added to the neurons cultured for 4 weeks at a final concentration of 100 μM, and then the spikes were measured. As a result, the number of spikes was increased both in the control group and in the fiber sheet group by the addition of 4-aminopyridine, and appropriate drug response was also confirmed (FIG. 7a).

[3] = seeded at 24×10^5 cells/cm^2 on oriented PLGA fiber sheet, 20% ACM, cultured 4 weeks

Question: `Nc1ccncc1` [4-aminopyridine] was tested. Which “increase in the number of spikes” value [1, 3] did it give?
Answer: Its value is 499%.

Question: And the “increase in the number of synchronous bursts” value [1, 3]?
Answer: The value was 375%.

Question: What about the “number of spikes and synchronous bursts (raster plots)” value ([1]; seeded at 24×10^5 cells/cm^2 on oriented PLGA fiber sheet, 20% ACM, cultured 6 weeks) of the same compound?
Answer: Its value is “remarkable increase”.

Question: What about the “increase in the number of bursts” value ([1]; seeded on fiber sheet at 12×10^5 cells/cm^2, cultured 6 weeks in medium with ACM) of the same compound?
Answer: The value was 2.6 fold.

Question: And the “increase in the number of spikes” value ([2]; control group cultured directly on the MEA probe, 4 weeks)?
Answer: The value was 156%.

Question: And the “increase in the number of spikes” value ([2]; fiber sheet group cultured in medium with 20% ACM, 4 weeks)?
Answer: The value was 194%.

Question: And the “increase in the number of spikes” value ([2]; neurons on oriented PLGA fiber sheet (fiber sheet group), cultured 4 weeks)?
Answer: The value was 167%.
